Assay [1] can be described thus: PET imaging studies in patients with ischemic cardiomyopathy. In kind it is in vivo. As to conditions: same subjects. The protocol: PET imaging studies were performed with 16F4THA in patients with ischemic cardiomyopathy. Conventional nuclear medicine perfusion scans were obtained in the same subjects.
Another assay has as its system myocardium. Particulars: cited from earlier work.
Another assay relates to isolated rat hearts. Briefly: Tracer uptake versus palmitate beta-oxidation rate in isolated perfused rat hearts. Particulars: Langendorff perfusion, 0.15 mM palmitate, 5 mM glucose; both normoxic (95% oxygen) and hypoxic (35% oxygen) conditions. Set-up: species or system Sprague Dawley rats. The protocol:
Model 4-thia analogs (16-[^18F]fluoro-4-thia-hexadecanoic acid and 12-[^18F]fluoro-4-thia-dodecanoic acid) were examined as tracers in isolated rat hearts. The perfusate was Krebs-Hensleit buffer with 1% albumin, 0.15 mM palmitate, and 5 mM glucose. Sprague Dawley rats (200-225 g) were fed ad libetum. The hearts were excised from pentobarbital-anesthetized animals and perused at 7 ml/min in Langendorff retrograde fashion. The perfusate was gassed with either 95% oxygen (normoxic) or 35% oxygen (hypoxic) gas mixture. The gases comprising the remaining fraction were nitrogen and carbon dioxide (5% for both). The tracer was administered as a bolus or as a pulse infusion into the isolated rat hearts. Pulse infusion allowed absolute quantification of ^18F accumulation rates that reflect the metabolic rate of the tracer in the heart. Clearance rates are measured during the washout phase of these experiments. Beta-oxidation rates of 9,10[^3H] palmitate were measured by collection of venous effluent samples and separation of titrated water.

For the compound `O=C(O)CCSCCCCCCCCCCCC[18F]` [Compound 16F4THA, 16-[^18F]Fluoro-4-thia-hexadecanoic acid], the “quality of PET scans compared with conventional nuclear medicine perfusion scans” value in assay [1] is reported as “superior quality”.
As to `CCCC([18F])CCCCCCCSCCCCC(=O)O` (stereo not shown) [Compound 14F6THA], the “tracking of beta-oxidation of palmitate” value in the assay with myocardium (a number of conditions) is recorded as “tracks beta-oxidation of palmitate”. For the same compound, in the assay with myocardium (hypoxia with normal blood flow), the “sensitivity to inhibition of beta-oxidation in myocardium” value is recorded as “insensitive”.
Consider `O=C(O)CCCCSCCCCCCCCCCC[18F]` [Compound 17F6THA, 17-[^18F]Fluoro-6-thia-heptadecanoic acid], for which the “correlation of beta-oxidation rates with uptake rates of the tracer (r)” value in the assay with isolated rat hearts is given as “poor correlation”.

These data come from patent publication US6362352B1, “F18-labeled thia fatty acids and methods of making and using the same” (Duke University, priority 1999, dated 2002).
